Source: patent US20060276416A1, “Methods and compositions for treating flushing and drug induced weight gain” (Sirtris Pharmaceuticals, Inc., priority 2005, published 2006)
“And” between values parts separate entries of the source, which are not always exact repeats. Identical values can stand only once.

How the values were obtained:
[1] = test system: C. elegans; experiment: C. elegans fat accumulation, Nile Red staining; format: in vivo; settings: for Concentration as low as which fat accumulation is reduced: 10, 50 and 100 μM tested
Procedure: Fat accumulation was visualized with Nile Red staining, as described further below and in Ashrafi K, et al. Nature 421:268-27 (2003).
Synchronized starved L1 worms were grown in the presence of Nile Red. Strains were grown on NGM plates at 25° C. for approximately 48 hours until the young adult stage was reached. 20-30 young adult worms were then washed 2× with M9 buffer and transferred to new NGM/Nile red experimental plates that contained either OP50 or HTT5 E. coli carrying the L4440 RNAi control vector.
Young adults were transferred to plates containing the appropriate vector, Nile Red stain and drug then maintained at 25° C.
Nile Red: Nile Red Powder (Sigma #N-3013) was dissolved in acetone at 500 μg/ml, diluted in 1× Phosphate Buffered Saline (PBS) including appropriate drug and applied to surface of Nematode Growth Media (NGM) plates previously seeded with OP50 or RNAi bacteria, at a final concentration of 0.05 μg/ml. Fat content was monitored and recorded by fluorescence microscopy.

[2] = molecular target: T1, recombinant human SIRT1 (Homo sapiens, UniProt Q96EB6); experiment: SIRT1 fluorescent deacetylation assay (p53-382 acetylated peptide); format: biochemical
T1 sequence (Q96EB6 1-747): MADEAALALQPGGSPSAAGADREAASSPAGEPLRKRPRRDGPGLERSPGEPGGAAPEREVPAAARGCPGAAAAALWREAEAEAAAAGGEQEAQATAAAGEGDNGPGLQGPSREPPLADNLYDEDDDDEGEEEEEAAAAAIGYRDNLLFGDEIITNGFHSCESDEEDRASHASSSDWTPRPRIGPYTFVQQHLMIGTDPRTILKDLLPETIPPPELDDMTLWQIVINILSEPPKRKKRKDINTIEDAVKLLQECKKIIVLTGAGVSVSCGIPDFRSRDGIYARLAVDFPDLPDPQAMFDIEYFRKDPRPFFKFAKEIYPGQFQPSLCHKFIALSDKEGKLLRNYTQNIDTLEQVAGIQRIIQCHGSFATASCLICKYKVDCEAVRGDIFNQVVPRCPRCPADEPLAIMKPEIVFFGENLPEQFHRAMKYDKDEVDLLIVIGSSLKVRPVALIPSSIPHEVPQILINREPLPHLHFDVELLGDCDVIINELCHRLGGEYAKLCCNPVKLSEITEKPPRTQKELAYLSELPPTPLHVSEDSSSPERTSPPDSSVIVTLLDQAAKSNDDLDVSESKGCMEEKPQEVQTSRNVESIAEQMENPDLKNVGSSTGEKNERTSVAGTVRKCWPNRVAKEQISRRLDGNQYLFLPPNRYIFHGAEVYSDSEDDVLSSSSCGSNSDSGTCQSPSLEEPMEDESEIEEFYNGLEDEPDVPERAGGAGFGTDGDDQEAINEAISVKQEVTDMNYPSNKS
Procedure: To identify compounds that modulate SIRT1 activity, a number of small molecule libraries were screened using a fluorescent deacetylation assay in 96-well plates^26. The substrate used in the assay was a fluorogenic peptide based on the sequence encompassing the p53-K382 acetylation site, a known target of SIRT1 in vivo^20,21,27. […] The small molecule libraries included analogues of nicotinamide, ε-acetyl lysine, NAD^+, nucleotides, nucleotide analogues and purinergic ligands.
From 0.1 to 1 μg of SIRT1 and 1.5 μg of Sir2 were used per deacetylation assay (in 50 μl total reaction) as previously described^26. SIRT1 assays and certain of those for Sir2 employed the p53-382 acetylated substrate (‘Fluor de Lys-SIRT1’, BIOMOL) rather than FdL.
Themed compound libraries (BIOMOL) were used for primary and secondary screening. Most polyphenol compounds were dissolved at 10 mM in dimethylsulfoxide (DMSO) on the day of the assay. For water soluble compounds and negative controls, 1% v/v DMSO was added to the assay. In vitro fluorescence assay results were read in white ½-volume 96-well microplates (Corning Costar 3693) with a CytoFluor™ II fluorescence plate reader (PerSeptive Biosystems, Ex. 360 nm, Em. 460 nm, gain=85). […] Unless otherwise indicated all initial rate measurements were means of three or more replicates, obtained with single incubation times, at which point 5% or less of the substrate initially present had been deacetylated. Calculation of net fluorescence increases included subtraction of a blank value, which in the case of Sir2 was obtained by omitting the enzyme from the reaction and in the case of SIRT1 by adding an inhibitor (200 μM suramin or 1 mM nicotinamide) to the reaction prior to the acetylated substrate. A number of the polyphenols partially quenched the fluorescence produced in the assay and correction factors were obtained by determining the fluorescence increase due to a 3 μM spike of an FdL deacetylated standard (BIOMOL, catalog number KI-142). All error bars represent the standard error of the mean.
All SIRT1 rate measurements used in the calculation of “Ratio to Control Rate” were obtained with 25 μM NAD^+ and 25 μM p53-382 acetylated peptide substrate were performed as described above and in K. T. Howitz et al. Nature (2003) 425: 191. All ratio data were calculated from experiments in which the total deacetylation in the control reaction was 0.25-1.25 μM peptide or 1-5% of the initial concentration of acetylated peptide.

[3] = test system: AMPK at Thr172 and ACC at serine 79; experiment: AMPK and ACC phosphorylation Western in CHO-HIR cells; format: cell-based; settings: AICAR 500 μM; resveratrol 12.5, 25 or 50 μM; 30 minutes
Procedure: Cells were harvested after 30 minutes and lysates were immediately boiled in SDS and subjected to Western analysis with site-specific antibodies. Phosphorylation of AMPK at Thr172 indicates activation of the kinase. Active AMPK phosphorylates and inactivates ACC at serine 79.

[4] = test system: HepG2 cells; experiment: Oxidation of 14C-palmitate (14C-CO2 production); format: cell-based; settings: resveratrol 10 μM, AICAR 500 μM, metformin 1 mM; 4 hours; vehicle 1
Procedure: (§1) Oxidation of ^14C-palmitate to acid-soluble products (modified from […] cells ([…]. and B. E. Kemp, J Biol Chem (1992) 267(5): 2864-7) and HepG2 cells were maintained as described above. Cells (10^6 cells/T25) were seeded in a T25 flask one day prior to the experiment. […] At the end of incubation, the cap of each […]per and a 1'×1.5'' Whatman filter paper soaked with 250 μl 2N NaOH. Each flask was injected with 2 ml of 6N HCL, placed in a horizontal position for 10 minutes and left standing overnight. […] The experiment was repeated three times.

[5] = test system: H4IIEC3 cells; experiment: Oxidation of 14C-palmitate (14C-CO2 production); format: cell-based; settings: resveratrol 10 μM, AICAR 500 μM, metformin 1 mM; 4 hours; vehicle 1
Procedure: as §1

[6] = molecular target: p53-382 acetylated peptide substrate ('Fluor de Lys-SIRT1', BIOMOL) (human) (UniProt P04637)
[7] = test system: S. cerevisiae; experiment: Yeast replicative lifespan by micro-manipulation; format: cell-based; settings: 10 μM
Procedure: Average lifespan for wild type, 22.9 generations, quercetin, 23.4; piceatannol.
Lifespan measurements were performed using PSY316AT MATα as previously described^35. All compounds for lifespan analyses were dissolved in 95% ethanol and plates were dried and used within 24 hours. Prior to lifespan analysis, cells were pre-incubated on their respective media for at least 15 hours. Following transfer to a new plate, cells were equilibrated on the medium for a minimum of 4 hours prior to micro-manipulating them. At least 30 cells were examined per experiment and each experiment was performed at least twice. Statistical significance of lifespan differences was determined using the Wilcoxon rank sum test. Differences are stated to be significant when the confidence is higher than 95%.

[8] = test system: TNF-alpha treated adipocytes; experiment: Radioactive glucose uptake in TNF-alpha treated insulin resistant adipocytes; format: cell-based; settings: resveratrol 5 μM or 15 μM; roziglitazone 4 μM
[9] = molecular target: T2, SIRT1 deacetylase (BIOMOL) (Homo sapiens, UniProt Q96EB6); experiment: High-throughput SIRT1 screening protocol (Fluor de Lys-SIRT1, 384 well); format: biochemical; settings: positive controls; roughly 50 μM, 200 μM NAD+, 5 μM Fluor de Lys-SIRT1
T2 construct: purchased BIOMOL
T2 sequence (Q96EB6 1-747): T1 sequence (Q96EB6 1-747)
Procedure: The reaction mixture contains (final): 0.5 units/reaction SIRT1 deacetylase (BIOMOL); 200 μM NAD^+; 5 μM Fluor de Lys-SIRT1 substrate (BIOMOL); buffer (25 mM Tris/Cl, pH 8.0, 137 mM NaCl, 2.7 mM KCl, 1 mM MgCl2, and 1 mg/ml BSA). In addition, a reaction mixture containing no enzyme was made so that each well receiving compound has a corresponding “no enzyme control” well. Reactions were performed in black 384 well plates (NUNC) in a final volume of 25 μl/well.
The reactions were started by combining enzyme and substrate in a reaction mixture immediately prior to aliquoting in plates (or substrate only for “no enzyme control” plates). Mixture were aliquoted to plates using Biotek μFill (Biotek Instruments). Control mixtures were manually added to designated wells. A library compound was added at a desired concentration by pin transfer to both “with enzyme” and “no enzyme” plates. Compounds were added in at least triplicate (with enzyme reaction in duplicate and no enzyme controls) at a final concentration of roughly 50 μM. The plates were incubated at 37° C. for 30-60 minutes. Then 25 μl of 1× Developer II (BIOMOL) plus 2 mM nicotinamide were added to all wells to stop the reactions. The reactions were left for at least 30 minutes at 37° C. for the signal to develop. The plates were read in a microplate-reading fluorometer capable of excitation at a wavelength in the range of 350-380 nm and detection of emitted light in the range of 440-460 nm. A read time of 0.1 sec per well was used.

[10] = test system: D. melanogaster; experiment: D. melanogaster survival (lifespan) assay; format: in vivo
Procedure: Survival assays were conducted independently with adult D. melanogaster in two laboratories. In the first laboratory, all trials used an yw marked wild-type strain. Larvae were reared on standard cornmeal-sugar-yeast (CSY) agar diet (cornmeal 5%, sucrose 10.5%, SAF yeast 2%, and agar 0.7%). Newly eclosed adults were placed in 1 L demography cages with approximately 75 males and 75 females. Three to four replicate 1 L demography cages were used for each treatment group in each trial. Every two days, dead flies were removed and scored, and food vials were replenished. Food vials contained cornmeal-sugar-yeast diet with SAF yeast as either 2% or 3% by weight. Test compounds in 100 μl of EtOH (or blank EtOH in controls) were mixed into melted aliquots of the adult food media to make a final concentration of 0, 10 or 100 μM. Fresh stock solutions and adult media were prepared weekly. In the second laboratory, lifespan trials were conducted with the wild type strain Canton-S, dSir2^4.5 and dSir2^5.26 (S. Smolik, University of Oregon), dSir2^17 (S. Astrom, Stockholm University, Sweden), and dSir2^KG00871 (Drosophila Stock Center, Bloomington, Ind.). Larvae for all tests were reared on standard cornmeal-sugar-yeast diet. Newly eclosed adults were incubated in plastic shell vials containing 5 ml of 15% sugar-yeast diet (15% SY) or 5% sugar-yeast (5% SY) diet (15% SY: 15% yeast, 15% sucrose, 2% agar; 5% SY: 5% yeast, 5% sucrose, 2% agar as per Ref.^20). In all trials, ˜20 males with ˜20 females were placed into each of 10 vials/treatment group. Every two days, flies were passed into new vials and dead flies were counted. […] Final compound concentrations were 0, 10, 100 or 200 μM. Fresh stock solution and adult media was prepared weekly.

NC(=O)c1cccnc1 [nicotinamide]
Fat accumulation ([1]; 0, 1 or 10 mM nicotinamide, overnight): concentration dependent increase in fat accumulation | Vmax decrease ([2]; 50 μM nicotinamide, absence of resveratrol, two determinations (varying NAD+ or p53-382 peptide)): 30% and 36%

NC(=O)c1ncn([C@@H]2O[C@H](CO)[C@@H](O)[C@H]2O)c1N [AICAR, 5-aminoimidazole-4-carboxamide-1-beta-D-ribofuranoside]
Phosphorylation of AMPK and ACC [3]: stimulates phosphorylation of AMPK and ACC | 14C-CO2 production (nmol/hr/10^6 cells) (Fold Effect) [4]: 5 fold | 14C-CO2 production (nmol/hr/10^6 cells) (Fold Effect) [5]: 2.3 fold

C(=C/c1ccccc1)/c1ccccc1 [cis-stilbene, cis-Stilbene]
Fat staining ([1]; 100 μM, 48 hours, control 2.5% v/v DMSO): No significant effect

His6-tagged recombinant SIRT1 (from UniProt Q96EB6) (enzyme)
Km for the p53-382 acetylated peptide (SIRT1 initial deacetylation rate, fluorescence) [6]: 64 µM

O=c1c(O)c(-c2ccc(O)c(O)c2)oc2cc(O)cc(O)c12 [quercetin, 3,5,7,3′,4′-Pentahydroxyflavone]
Fat mobilization ([1]; 100 μM, 48 hours): stimulate fat mobilization | Concentration as low as which fat accumulation is reduced ([1]; 48 hours): 10 µM | Effect on lifespan (in words) [7]: no significant effect

roziglitazone
Insulin sensitivity (radioactive glucose uptake) [8]: increases the uptake of radioactive glucose

COc1ccc(/C=C/c2cc(O)cc(O)c2)cc1 [BML-233, 3,5-Dihydroxy-4′-methoxy-trans-stilbene]
Activation of SIRT1 [9]: 2.1 fold

O=c1c(O)c(-c2ccc(O)c(O)c2)oc2cc(O)ccc12 [fisetin, 3,7,3′,4′-Tetrahyddroxyflavone]
Fat mobilization ([1]; 100 μM, 48 hours): stimulate fat mobilization | Concentration as low as which fat accumulation is reduced ([1]; 48 hours): 10 µM | Longevity under restricted diet ([10]; restricted diet): neither resveratrol nor fisetin further increased longevity | Lifespan extension ([10]; wild type strains, males and females, independent tests, maximum): up to 23%

Oc1cc(O)cc(/C=C/c2ccc(O)c(O)c2)c1 [piceatannol, 3,5,3′,4′-Tetrahydroxy-trans-stilbene]
Fat mobilization ([1]; 100 μM, 48 hours): stimulate fat mobilization | Stimulation of SIRT1 activity ([2]; initial screen (Table 1, 100 μM)): eight | Effect on lifespan (in words) [7]: no significant effect

CN(C)C(=N)N=C(N)N [Metformin]
14C-CO2 production (nmol/hr/10^6 cells) (Fold Effect) [4]: 3.5 fold | 14C-CO2 production (nmol/hr/10^6 cells) (Fold Effect) [5]: 2 fold

Oc1cc(O)cc(/C=C/c2ccccc2)c1 [Pinosylvin, 3,5-Dihydroxy-trans-stilbene]
Activation of SIRT1 [9]: 3.28 fold
